Assay results published in PMC5164911, “Comparative Analysis of the Interaction between Different Flavonoids and PDIA3” (Oxidative Medicine and Cellular Longevity, 2016).
Where two headings read alike, the source gives them in different places.

Legend:
[1] = target: T1, PDIA3 a′ domain (residues 377–505) (Homo sapiens, UniProt P30101); assay: Fluorescence quenching titration of isolated a′ domain; assay type: binding; settings: a′ domain 1 μM, reduced form; data not shown
T1 construct: second redox-active domain (a′ domain, residues 377–505); made in house; host or cells: E. coli BL21 (vector pET29)
T1 sequence (P30101 377-505): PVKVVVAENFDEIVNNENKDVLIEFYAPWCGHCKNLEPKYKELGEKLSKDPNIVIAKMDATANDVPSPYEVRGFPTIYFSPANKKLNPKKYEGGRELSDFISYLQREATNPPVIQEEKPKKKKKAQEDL
Source text: Human recombinant PDIA3 was cloned and expressed in E. coli strain BL21 using the expression vector pET21 (Novagen) as previously described. The coding sequence for the second redox-active domain (a′ domain, residues 377–505) was amplified by PCR as previously described and cloned in the expression vector pET29 (Novagen). Recombinant proteins were expressed in E. coli strain BL21 and purified by ammonium sulphate fractionation, ion exchange, and heparin chromatography. Protein purification was evaluated by SDS-PAGE and concentration was determined spectrophotometrically (PDIA3 ℇ 280 reduced form = 44,810 M^−1 cm^−1; a′ domain ℇ 280 reduced form = 14,400 M^−1 cm^−1).
Quantitative analysis of the interaction between individual flavonoids and PDIA3 was performed by fluorimetric titration. Fluorescence spectra were recorded using a SPEX-FluoroMax spectrofluorimeter (Horiba Scientific) from 300 to 500 nm with excitation at 290 nm using a 10 mm path length quartz fluorescence cuvette and under continuous stirring. The excitation and emission slits were both set to 5 nm and scan speed was 120 nm·min^−1. […] Fluorescence spectra of appropriate blanks (flavonoids without proteins) were recorded under the same experimental conditions and subtracted from the corresponding flavonoid-protein system to correct the fluorescence background. Fluorescence intensities recorded at 338 nm were used for quenching analysis and data obtained for each flavonoid are the average of at least three independent titration experiments.
Quenching analysis was performed on PDIA3 (0.5 μM), in the reduced form, by adding stepwise increasing concentration of each molecule and recording the protein fluorescence spectra. […] Quenching effect on protein and Stern-Volmer quenching constant (K SV) were calculated from the fluorescence intensities at 338 nm of protein alone (F 0) and in the presence of increasing concentration of each ligand molecule (F) using the Stern-Volmer equation [40]: (1) F0/F=1+KSVL, where L is the ligand concentration. […]

PDIA3 = target: T2, PDIA3 (Homo sapiens, UniProt P30101); assay: Fluorescence quenching titration of PDIA3 intrinsic fluorescence; assay type: binding; settings: for Stern-Volmer constant (K SV): 0.5∗10^−6 M PDIA3 in reduced conditions, pH 7.4, 25°C, flavonoid 0 to 10∗10^−6 M, mean and standard deviation; for bimolecular quenching rate constant (K q): K SV = K q τ0 with τ0 of the order of 10^−8 s; for binding constant (K b): equation of Bi et al., reiterative calculation of Sun et al.
T2 construct: made in house; host or cells: E. coli BL21 (vector pET21)
T2 sequence (P30101 25-505): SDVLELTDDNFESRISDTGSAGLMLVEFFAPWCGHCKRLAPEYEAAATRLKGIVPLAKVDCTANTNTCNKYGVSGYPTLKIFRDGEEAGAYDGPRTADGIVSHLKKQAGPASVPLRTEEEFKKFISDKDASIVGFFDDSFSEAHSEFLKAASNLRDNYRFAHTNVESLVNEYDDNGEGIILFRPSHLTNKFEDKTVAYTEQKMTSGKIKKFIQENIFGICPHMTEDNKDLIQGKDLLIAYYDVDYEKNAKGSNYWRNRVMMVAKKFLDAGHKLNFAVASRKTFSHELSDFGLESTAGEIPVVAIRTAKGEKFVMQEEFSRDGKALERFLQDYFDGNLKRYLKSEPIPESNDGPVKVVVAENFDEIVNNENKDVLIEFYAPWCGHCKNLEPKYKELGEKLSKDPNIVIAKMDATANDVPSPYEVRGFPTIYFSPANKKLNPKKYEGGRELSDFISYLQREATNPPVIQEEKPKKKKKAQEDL
Procedure: Quantitative analysis of the interaction between individual flavonoids and PDIA3 was performed by fluorimetric titration. […] Briefly, solution of PDIA3 (0.5 μM) or a and a′ domains (1 μM) in phosphate buffered saline (PBS) containing DTT 0.1 mM and EDTA 0.2 mM were titrated in quartz cuvette by stepwise additions, at 5 min time intervals, of individual flavonoid solution (1 mM in PBS/ethanol 50 : 50 v/v freshly prepared from a 20 mM stock solution in DMSO). […] To minimize the inner-filter effect we limited the highest concentration reached in the titration test up to 10 μM. All experiments were carried out at 25°C. Each spectrum was the mean of three repeated scans. Fluorescence spectra of appropriate blanks (flavonoids without proteins) were recorded under the same experimental conditions and subtracted from the corresponding flavonoid-protein system to correct the fluorescence background.
Quenching analysis was performed on PDIA3 (0.5 μM), in the reduced form, by adding stepwise increasing concentration of each molecule and recording the protein fluorescence spectra. For some flavonoids the analysis was extended to isolate a′ domain (1 μM), always in the reduced form. […] For each ligand molecule the Stern-Volmer quenching constant was obtained by linear regression of plots of F 0/F versus [L].
The Stern-Volmer quenching constant may be expressed as K SV = K q τ 0, where K q is the quencher rate coefficient and τ 0 is the average lifetime of the emissive excited state of the protein in the absence of the quencher.
The number of binding sites (n) and the binding constant (K b) were obtained by plotting log((F 0 − F)/F) versus log(1/([L t] − n(F 0 − F)[P t]/F 0)) using the reiterative calculation process described by Sun et al., assuming a similar affinity for each binding site.

[2] = K d = 1/K b, reduced PDIA3, pH 7.4, 25°C, read-out: dissociation constant (K d)

SMILES	Affinity for isolated a′ domain [1]	Stern-Volmer constant (K SV) (PDIA3) [M⁻¹]	bimolecular quenching rate constant (K q) (PDIA3; reduced PDIA3, pH 7.4, 25°C) [M⁻¹ s⁻¹]	Kd (PDIA3; [2]) [µM]	binding constant (K b) (PDIA3; reduced PDIA3, pH 7.4, 25°C) [M⁻¹]	Kd (PDIA3; Figure 8, no unit printed in the picture, read-out: Dissociation constant (Kd)) [µM]
COc1ccc(-c2cc(=O)c3c(OC)c(OC)c(OC)cc3o2)cc1O [Eupatorin-5-methyl ether, eupatorin-5-methyl-ether]	greatest affinity	90016 ± 1875	9e+12	11.1	90400	–
O=c1cc(-c2ccc(O)cc2)oc2cc(O)cc(O)c12 [Apigenin, apigenin]	greatest affinity	54332 ± 1185	5.43e+12	17	58700	–
COc1ccc(-c2cc(=O)c3c(O)c(OC)c(OC)cc3o2)cc1O [Eupatorin, eupatorin]	greatest affinity	89362 ± 688	8.94e+12	10.3	96700	10.3
